Experimental data published in PubChem BioAssay (NCI).
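Exposure lasted 48 hours, with cells grown in 96-well plates and compounds tested at five concentrations. Abbreviation: GI50, concentration required for 50% inhibition of growth. TGI denotes the concentration required for complete inhibition of growth.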

Tests used:
Assay in all cases: inhibition of tumour cell growth, NCI panel, 48 h
HCC-2998 colon = tested on: HCC-2998 colon
HL-60(TB) leukemia = tested on: HL-60(TB) leukemia
RXF 393 renal = tested on: RXF 393 renal
COLO 205 colon = tested on: COLO 205 colon
DU-145 prostate = tested on: DU-145 prostate
RPMI-8226 leukemia = tested on: RPMI-8226 leukemia
HOP-62 NSCLC = tested on: HOP-62 NSCLC
K-562 leukemia = tested on: K-562 leukemia
M14 melanoma = tested on: M14 melanoma
TK-10 renal = tested on: TK-10 renal
HCT-15 colon = tested on: HCT-15 colon
SK-MEL-5 melanoma = tested on: SK-MEL-5 melanoma
OVCAR-8 ovarian = tested on: OVCAR-8 ovarian
A549 NSCLC = tested on: A549 NSCLC
MALME-3M melanoma = tested on: MALME-3M melanoma
T-47D breast = tested on: T-47D breast
SNB-75 CNS = tested on: SNB-75 CNS
SK-OV-3 ovarian = tested on: SK-OV-3 ovarian
MDA-MB-231 breast = tested on: MDA-MB-231 breast
CCRF-CEM leukemia = tested on: CCRF-CEM leukemia
SF-268 CNS = tested on: SF-268 CNS
IGROV1 ovarian = tested on: IGROV1 ovarian
MCF7 breast = tested on: MCF7 breast
CAKI-1 renal = tested on: CAKI-1 renal
786-0 renal = tested on: 786-0 renal
HT29 colon = tested on: HT29 colon
EKVX NSCLC = tested on: EKVX NSCLC
UACC-62 melanoma = tested on: UACC-62 melanoma
KM12 colon = tested on: KM12 colon
LOX IMVI melanoma = tested on: LOX IMVI melanoma
MDA-N = tested on: MDA-N
NCI-H23 lung = tested on: NCI-H23 lung
SK-MEL-28 melanoma = tested on: SK-MEL-28 melanoma
UACC-257 melanoma = tested on: UACC-257 melanoma
SW-620 colon = tested on: SW-620 colon
SN12C renal = tested on: SN12C renal
PC-3 prostate = tested on: PC-3 prostate
NCI-H226 lung = tested on: NCI-H226 lung
MOLT-4 leukemia = tested on: MOLT-4 leukemia
SK-MEL-2 melanoma = tested on: SK-MEL-2 melanoma
HCT-116 colon = tested on: HCT-116 colon
OVCAR-4 ovarian = tested on: OVCAR-4 ovarian
ACHN renal = tested on: ACHN renal
NCI-H522 lung = tested on: NCI-H522 lung
BT-549 breast = tested on: BT-549 breast
SF-539 CNS = tested on: SF-539 CNS
NCI/ADR-RES ovarian = tested on: NCI/ADR-RES ovarian
HS 578T breast = tested on: HS 578T breast
SF-295 CNS = tested on: SF-295 CNS
A498 renal = tested on: A498 renal
NCI-H460 lung = tested on: NCI-H460 lung
U251 CNS = tested on: U251 CNS
MDA-MB-435 = tested on: MDA-MB-435
OVCAR-5 ovarian = tested on: OVCAR-5 ovarian
UO-31 renal = tested on: UO-31 renal
HOP-92 NSCLC = tested on: HOP-92 NSCLC
SNB-19 CNS = tested on: SNB-19 CNS
OVCAR-3 ovarian = tested on: OVCAR-3 ovarian
SR leukemia = tested on: SR leukemia

CCN(CC)CCCNc1ccc([N+](=O)[O-])c2nc3ccc(OC)cc3c(NCCCN(CC)CC)c12
TGI (HCC-2998 colon): 3.03 µM
TGI (HL-60(TB) leukemia): 1.04 µM
TGI (RXF 393 renal): 4.05 µM
TGI (COLO 205 colon): > 10 µM
TGI (DU-145 prostate): > 10 µM
TGI (RPMI-8226 leukemia): 5.81 µM
TGI (HOP-62 NSCLC): > 10 µM
TGI (K-562 leukemia): 3.75 µM
TGI (M14 melanoma): > 10 µM
TGI (TK-10 renal): > 10 µM
TGI (HCT-15 colon): 2.79 µM
TGI (SK-MEL-5 melanoma): > 10 µM
TGI (OVCAR-8 ovarian): 2.7 µM
TGI (A549 NSCLC): 3.73 µM
TGI (MALME-3M melanoma): > 10 µM
TGI (T-47D breast): > 10 µM
TGI (SNB-75 CNS): > 10 µM
TGI (SK-OV-3 ovarian): > 10 µM
TGI (MDA-MB-231 breast): 2.84 µM
TGI (CCRF-CEM leukemia): 7.37 µM
TGI (SF-268 CNS): > 10 µM
TGI (IGROV1 ovarian): > 10 µM
TGI (MCF7 breast): 3.56 µM
TGI (CAKI-1 renal): > 10 µM
TGI (786-0 renal): 2.76 µM
TGI (HT29 colon): 3.42 µM
TGI (EKVX NSCLC): > 10 µM
TGI (UACC-62 melanoma): > 10 µM
TGI (KM12 colon): 3.05 µM
TGI (LOX IMVI melanoma): 2.69 µM
TGI (MDA-N): > 10 µM
TGI (NCI-H23 lung): 4.76 µM
TGI (SK-MEL-28 melanoma): > 10 µM
TGI (UACC-257 melanoma): > 10 µM
TGI (SW-620 colon): 3.98 µM
TGI (SN12C renal): 5.89 µM
TGI (PC-3 prostate): 2.9 µM

COc1ccc(NC2=C(Br)C(=O)C(C)=C(C)C2=O)cc1
GI50 (NCI-H226 lung): 13 µM
TGI (NCI-H226 lung): 27.6 µM
GI50 (HCC-2998 colon): 12.4 µM
TGI (HCC-2998 colon): 26.5 µM
GI50 (HL-60(TB) leukemia): 2.34 µM
TGI (HL-60(TB) leukemia): 6.82 µM
GI50 (MOLT-4 leukemia): 2.67 µM
TGI (MOLT-4 leukemia): > 100 µM
GI50 (RXF 393 renal): 2.71 µM
TGI (RXF 393 renal): 8.13 µM
GI50 (COLO 205 colon): 21.3 µM
TGI (COLO 205 colon): 51 µM
GI50 (DU-145 prostate): 15 µM
TGI (DU-145 prostate): 29.1 µM
GI50 (SK-MEL-2 melanoma): 11.4 µM
TGI (SK-MEL-2 melanoma): 28.3 µM
GI50 (HCT-116 colon): 1.76 µM
TGI (HCT-116 colon): 3.37 µM
GI50 (RPMI-8226 leukemia): 2.21 µM
TGI (RPMI-8226 leukemia): 5.01 µM
GI50 (HOP-62 NSCLC): 15 µM
TGI (HOP-62 NSCLC): 38.6 µM
GI50 (K-562 leukemia): 2.25 µM
TGI (K-562 leukemia): > 100 µM
GI50 (M14 melanoma): 11.7 µM
TGI (M14 melanoma): 24.8 µM
GI50 (OVCAR-4 ovarian): 1.6 µM
TGI (OVCAR-4 ovarian): 2.97 µM
GI50 (ACHN renal): 2.87 µM
TGI (ACHN renal): 8.76 µM
GI50 (TK-10 renal): 25.2 µM
TGI (TK-10 renal): 40.9 µM
GI50 (NCI-H522 lung): 12.7 µM
TGI (NCI-H522 lung): 31.8 µM
GI50 (HCT-15 colon): 11.4 µM
TGI (HCT-15 colon): 27.7 µM
GI50 (SK-MEL-5 melanoma): 13.1 µM
TGI (SK-MEL-5 melanoma): 26 µM
GI50 (OVCAR-8 ovarian): 2.22 µM
TGI (OVCAR-8 ovarian): 5.31 µM
GI50 (A549 NSCLC): 18.7 µM
TGI (A549 NSCLC): 45.7 µM
GI50 (MALME-3M melanoma): 14.5 µM
TGI (MALME-3M melanoma): 28.3 µM
GI50 (BT-549 breast): 11.8 µM
TGI (BT-549 breast): 24.4 µM
GI50 (T-47D breast): 1.93 µM
TGI (T-47D breast): 4.81 µM
GI50 (SNB-75 CNS): 11 µM
TGI (SNB-75 CNS): 23.5 µM
GI50 (SK-OV-3 ovarian): 12.3 µM
TGI (SK-OV-3 ovarian): 26.1 µM
GI50 (MDA-MB-231 breast): 1.88 µM
TGI (MDA-MB-231 breast): 3.96 µM
GI50 (CCRF-CEM leukemia): 2.33 µM
TGI (CCRF-CEM leukemia): > 100 µM
GI50 (SF-268 CNS): 11.9 µM
TGI (SF-268 CNS): 28.2 µM
GI50 (IGROV1 ovarian): 1.8 µM
TGI (IGROV1 ovarian): 3.39 µM
GI50 (MCF7 breast): 1.78 µM
TGI (MCF7 breast): 3.77 µM
GI50 (CAKI-1 renal): 1.72 µM
TGI (CAKI-1 renal): 3.11 µM
GI50 (786-0 renal): 15.7 µM
TGI (786-0 renal): 29.9 µM
GI50 (HT29 colon): 27.4 µM
TGI (HT29 colon): 79.6 µM
GI50 (SF-539 CNS): 13.5 µM
TGI (SF-539 CNS): 26.7 µM
GI50 (EKVX NSCLC): 1.69 µM
TGI (EKVX NSCLC): 3.12 µM
GI50 (NCI/ADR-RES ovarian): 2.04 µM
TGI (NCI/ADR-RES ovarian): 4.65 µM
GI50 (HS 578T breast): 11.8 µM
TGI (HS 578T breast): 57.5 µM
GI50 (UACC-62 melanoma): 7.74 µM
TGI (UACC-62 melanoma): 20.7 µM
GI50 (SF-295 CNS): 13.8 µM
TGI (SF-295 CNS): 27 µM
GI50 (A498 renal): 1.62 µM
TGI (A498 renal): 33.6 µM
GI50 (NCI-H460 lung): 18.8 µM
TGI (NCI-H460 lung): 42.6 µM
GI50 (U251 CNS): 1.93 µM
TGI (U251 CNS): 3.98 µM
GI50 (KM12 colon): 5.02 µM
TGI (KM12 colon): 19 µM
GI50 (LOX IMVI melanoma): 1.67 µM
TGI (LOX IMVI melanoma): 3.17 µM
GI50 (MDA-MB-435): 1.91 µM
TGI (MDA-MB-435): 3.49 µM
GI50 (OVCAR-5 ovarian): 5.07 µM
TGI (OVCAR-5 ovarian): 21.8 µM
GI50 (NCI-H23 lung): 4.41 µM
TGI (NCI-H23 lung): 23.7 µM
GI50 (SK-MEL-28 melanoma): 2.3 µM
TGI (SK-MEL-28 melanoma): 4.76 µM
GI50 (UACC-257 melanoma): 1.75 µM
TGI (UACC-257 melanoma): 3.37 µM
GI50 (SW-620 colon): 2.07 µM
TGI (SW-620 colon): 4.54 µM
GI50 (UO-31 renal): 1.73 µM
TGI (UO-31 renal): 3.16 µM
GI50 (HOP-92 NSCLC): 1.55 µM
TGI (HOP-92 NSCLC): 3.08 µM
GI50 (SN12C renal): 11 µM
TGI (SN12C renal): 23.2 µM
GI50 (PC-3 prostate): 2.78 µM
TGI (PC-3 prostate): 9.05 µM
GI50 (SNB-19 CNS): 10.5 µM
TGI (SNB-19 CNS): 22.8 µM
GI50 (OVCAR-3 ovarian): 1.72 µM
TGI (OVCAR-3 ovarian): 3.13 µM
GI50 (SR leukemia): 3.21 µM
TGI (SR leukemia): > 100 µM
